From patent US5670482A, “Neuropeptide Y antagonists” (Glaxo Wellcome Inc., priority 1992, dated 1997) come the findings set out here.

Positions of bridges follow the written chain, without caps; N, C: chain ends. Chains are numbered I, II in the order given. No end group written: not given here.

This assay deals with NPY-induced increase of perfusion pressure in isolated perfused rat kidney. Put plainly: Isolated perfused rat kidney preparation. The following applies: antagonist infused during 5 min, read-out: IC50 for the inhibition of the NPY-induced increase of perfusion pressure. How it is done:
Male CD rats (200-400 g) are anaesthetised with a mixture of Acepromazine (2.8 mg/kg) and Kenamine (112 mg/kg) injected i.p. The rat's abdomen is opened through the midline. The renal arteries and descending aorta are cleaned and, with minimal disruption of blood flow, one kidney is cannulated through the proximal renal artery using a stainless steel 20G blunt-tipped needle attached to Tygon tubing and a peristaltic pump. As soon as the first ligature is complete and perfusion of the kidney starts (10 ml/min) and the kidney is removed from the animal and placed in a constant temperature perfusion chamber. The perfusion pressure is followed by an on-line Statham pressure transducer and changes recorded in a Grass Polygraph.
Administration of Drugs: Neuropeptide Y and other agonists are administered by a single bolus injection (0.1 ml) through an injection port situated about 6 inches from the tip of the needle (approximately 0.3 ml, total volume). Antagonists are infused during 5 min (0.15 ml/min) into the kidney through an injection port situtated before the perfusion pump to allow for good mixing and constant concentration (dilution of 0.15 ml into 10 ml). […]
Results: Using the above experimental procedure we have determined the IC50 for the inhibition of the NPY-induced increase of perfusion pressure for: […]

The term IC50 denotes the concentration at which inhibition is half-maximal. In the case of “IleCysProCysTyrArgLeuArgTyr-NH2,Cyclic (2,2'),(4,4')-Disulfide Dimer (chain 1 ICPCYRLRY-NH2; chain 2 ICPCYRLRY-NH2; disulfide I:2-II:2, I:4-II:4; N-terminus assumed; SMILES CC[C@H](C)[C@H](N)C(=O)N[C@H]1CSSC[C@H](NC(=O)[C@@H](N)[C@@H](C)CC)C(=O)N2CCC[C@H]2C(=O)N[C@H](C(=O)N[C@@H](Cc2ccc(O)cc2)C(=O)N[C@@H](CCCNC(=N)N)C(=O)N[C@@H](CC(C)C)C(=O)N[C@@H](CCCNC(=N)N)C(=O)N[C@@H](Cc2ccc(O)cc2)C(N)=O)CSSC[C@@H](C(=O)N[C@@H](Cc2ccc(O)cc2)C(=O)N[C@@H](CCCNC(=N)N)C(=O)N[C@@H](CC(C)C)C(=O)N[C@@H](CCCNC(=N)N)C(=O)N[C@@H](Cc2ccc(O)cc2)C(N)=O)NC(=O)[C@@H]2CCCN2C1=O)”, the IC50 is 2.5 nM.
To “IleCysProCysTyrArgLeuArgTyr-NH2,Cyclic (2,4'),(4,2')-Disulfide Dimer (chain 1 ICPCYRLRY-NH2; chain 2 ICPCYRLRY-NH2; disulfide (positions not given here); not fully specified (bridges))” belongs 2.5 nM.
